Laboratory results from patent publication US10495796B2, “Near-infrared cut filter” (AGC INC., priority 2012, dated 2019).

Columns and labels:
Format in all cases: physicochemical
[1] = Transmittance and 20% shift (incident angle dependency) of NIR filter having selected wavelength shielding layer; conditions: NIR filter 110: dye 3.0 parts by mass per 100 of polyester resin B-OKP2 (nd(B) 1.64), with selected wavelength shielding layer and antireflection layer
Description: In the present filter, the visible light transmittance is secured sufficiently by satisfying the condition (iv-1), and moreover, angle dependency which the dielectric multilayer film has is solved, and the light shielding property of the near-infrared region is secured sufficiently in a wide wavelength region without being affected by the influence of the incident angle by satisfying the conditions (iv-2) and (iv-3). • Here, in the condition (iv-3), the angle dependency is evaluated by using a shift of wavelength in 20% transmittance when the incident angle is 0 degree and when it is 30 degrees as an index.
Transmittance of the NIR filter of Example 110 was measured as transmittance of light incident from a direction orthogonal to a main surface, that is, light with an incident angle of 0 degree and transmittance of light incident from a direction making an angle of 30 degrees relative to a line orthogonal to the main surface, that is, light with an incident angle of 30 degrees by using an ultraviolet visible light spectrophotometer (U-4100 type spectrophotometer made by Hitachi High-Technologies Corporation), so as to obtain a transmission spectrum. A 20% shift (30 degrees) is a difference between a value of a wavelength with transmittance of 20% of light with an incident angle of 0 degree (indicated as “λ20-0”) and a value of a wavelength with transmittance of 20% of light with an incident angle of 30 degrees (indicated as “λ20-30”).
Moreover, a transmission spectrum of light with an incident angle of 40 degrees was obtained similarly. Further, the difference between a value of a wavelength with transmittance of 20% of light with an incident angle of 0 degree (λ20-0) and a value of a wavelength with transmittance of 20% of light with an incident angle of 40 degrees (indicated as “λ20-40”) was obtained as a 20% shift (40 degrees).
The near-infrared absorbing layer was formed on a glass plate similarly to Example 7 except that a glass plate on which the selected wavelength shielding layer is formed was used on a face opposite to an application face of the coating liquid for forming the near-infrared absorbing layer. Moreover, the antireflection layer was formed on the near-infrared absorbing layer, so as to obtain the NIR filter 110. The film thickness in the selected wavelength shielding layer in its entirety was approximately 8.9 μm, and the film thickness in the antireflection layer in its entirety was approximately 0.34 μm. The transmittance of the obtained NIR filter 110 was measured, and 20% shifts (30 degrees) and (40 degrees) were obtained. Results thereof are presented in Table 9 together with structures of the near-infrared absorbing layer. FIG. 6 illustrates transmission spectra of light with incident angles of 0 degree, 30 degrees and 40 degrees of the wavelength region of 660 nm to 690 nm in the NIR filter 110 by a solid line, a dotted line and a dashed line, respectively.

[2] = Absorption characteristics: transmission spectrum of near-infrared absorbing layer of NIR filter (UV-visible spectrophotometer)
In short: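 Transmission spectra of the near-infrared absorbing layer on glass were recorded with a UV-visible spectrophotometer at normal incidence, with the glass plate's absorption and interface reflections subtracted. From the 650–800 nm region, λa (shortest wavelength at 1% transmittance) and λc (70% transmittance, shorter side) were taken. The Is value is nd(B)×(λa−λc), with λb−λa fixed at 30 nm.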

[3] = Solubility of dye to organic solvent; conditions: 50° C., mass % of the dye to the mass of the entire solution
Description: Regarding the dyes (A11-1) to (A11-10) and (A11-20) to (A11-27) obtained above, solubility to organic solvent was evaluated as follows.
Three kinds of solvents, cyclohexanone, methyl isobutyl ketone (MIBK), toluene, were used as the organic solvent in the solubility test. Note that in Table 3, % is mass % of the dye to the mass of the entire solution. Further, the temperature of each organic solvent in the solubility test was 50° C.

[4] = transparent resin acrylic resin BR50, nd(B) 1.56, film thickness 2.3 μm
[5] = transparent resin polycarbonate EP5000, nd(B) 1.63, film thickness 2.4 μm
[6] = transparent resin polycarbonate SP3810, nd(B) 1.63, film thickness 1.0 μm
[7] = transparent resin polycarbonate SP3810, nd(B) 1.63, film thickness 2.8 μm

- 430 nm to 600 nm Average transmittance [2, 4]: 96.1%
- Is value (nd(B)×(λa-λc)) [2, 4]: 101.5
- λa [2, 4]: 695 nm
- λa − λc [2, 4]: 65 nm
- λb [2, 4]: 715 nm
- λb − λa [2, 4]: 30 nm
- λc [2, 4]: 630 nm
- λmax [2, 4]: 712 nm
- 430 nm to 600 nm Average transmittance [2, 5]: 96.9%
- Is value (nd(B)×(λa-λc)) [2, 5]: 104.5
- λa [2, 5]: 700 nm
- λa − λc [2, 5]: 64 nm
- λb [2, 5]: 730 nm
- λb − λa [2, 5]: 30 nm
- λc [2, 5]: 636 nm
- λmax [2, 5]: 715 nm
- 430 nm to 600 nm Average transmittance [2, 6]: 95.8%
- Is value (nd(B)×(λa-λc)) [2, 6]: 106.3
- λa [2, 6]: 700 nm
- λa − λc [2, 6]: 65 nm
- λb [2, 6]: 730 nm
- λb − λa [2, 6]: 30 nm
- λc [2, 6]: 635 nm
- λmax [2, 6]: 712 nm
- 430 nm to 600 nm Average transmittance [2, 7]: 96.5%
- Is value (nd(B)×(λa-λc)) [2, 7]: 104.6
- λa [2, 7]: 700 nm
- λa − λc [2, 7]: 64 nm
- λb [2, 7]: 730 nm
- λb − λa [2, 7]: 30 nm
- λc [2, 7]: 636 nm
- λmax [2, 7]: 716 nm
- Solubility to organic solvent: Cyclohexanone ([3]; cyclohexanone): 10%< mass %
- Solubility to organic solvent: MIBK ([3]; methyl isobutyl ketone): 3.00% mass %
- Solubility to organic solvent: Toluene ([3]; toluene): 10%< mass %
SMILES: CCCCC(CC)C(=O)Nc1cc2c(cc1C1=C([O-])C(=c3cc4c(cc3NC(=O)C(CC)CCCC)=[N+](C(C)C)C(C)C4(C)C)C1=O)C(C)(C)C(C)N2C(C)C (stereo not shown) [Example A11-7]
- 20% shift 30 degrees (λ20-0-λ20-30) [1]: 1 nm
- 20% shift 40 degrees (λ20-0-λ20-40) [1]: 3 nm
- 20%-transmittance wavelength of 0-degree incident angle (λ20-0) [1]: 668 nm
- 20%-transmittance wavelength of 30-degree incident angle (λ20-30) [1]: 667 nm
- 20%-transmittance wavelength of 40-degree incident angle (λ20-40) [1]: 665 nm
- Transmittance 420 nm to 620 nm (average) [1]: 88.6%
- Transmittance 700 nm to 1100 nm (average) [1]: 0.03%
- Transmittance 710 nm to 1100 nm (maximum) [1]: 0.28%
